Laboratory results published in patent publication US20240254129A1, “HETEROCYCLIC COMPOUNDS AND USES THEREOF” (Kumquat Biosciences Inc., priority 2021, published 2024).
Where two headings read alike, the source gives them in different places.

What was measured:
[1] = target: GST-tagged K-Ras mutant / His-tagged hSOS1 (Homo sapiens, UniProt P01116); assay: HTRF assay, K-Ras mutant / SOS1 interaction; type: binding; details: read-out: IC50 against mutant Kras
Outline: (§1)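 Inhibition of wildtype or mutant K-Ras binding to hSOS1 is measured by FRET between antibody-bound Eu donor and XL665 acceptor. Protein levels are matched to the IC50 range under study. The 665/620 nm signal after ≥10 min yields IC50.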

wildtype Kras / hSOS1 = target: T1, wildtype Kras / hSOS1 (Homo sapiens, UniProt P01116); assay: HTRF assay, wildtype Kras / SOS1 interaction; type: binding; details: read-out: IC50 against wildtype Kras
T1 construct: made in house; host or cells: E. coli BL21 (DE3)
T1 sequence (P01116 1-188 isoform P01116-2): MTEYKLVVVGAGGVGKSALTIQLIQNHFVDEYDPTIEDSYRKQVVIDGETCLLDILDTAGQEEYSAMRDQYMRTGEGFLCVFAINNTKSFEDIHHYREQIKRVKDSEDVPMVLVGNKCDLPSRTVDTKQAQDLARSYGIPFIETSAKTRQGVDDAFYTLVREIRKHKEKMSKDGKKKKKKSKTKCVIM
Outline: as §1

[2] = compound nos. 102-196, general methodology of example 5

Sequence of GST-tagged K-Ras mutant / His-tagged hSOS1 (P01116 whole entry G12D, form open): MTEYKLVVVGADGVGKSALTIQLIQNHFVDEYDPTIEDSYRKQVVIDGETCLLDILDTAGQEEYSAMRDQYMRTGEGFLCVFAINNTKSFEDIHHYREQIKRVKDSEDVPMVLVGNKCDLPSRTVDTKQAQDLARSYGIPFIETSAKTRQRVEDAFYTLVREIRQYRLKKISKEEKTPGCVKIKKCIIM

| SMILES | IC50 [1, 2] | IC50 (wildtype Kras / hSOS1; [2]) | IC50 ([1]; compound nos. 401-703) | IC50 (wildtype Kras / hSOS1; compound nos. 401-703) |
| --- | --- | --- | --- | --- |
| Nc1nc2c(-c3c(Cl)cc4c(N5CCOCC(O)C5)nc(OCC56CCCN5CCC6)nc4c3F)cccc2s1 (stereo not shown) [Compound 156, 4-(7-(2-aminobenzo[d]-thiazol-4-yl)-6-chloro-8-fluoro-2-((tetrahydro-1H-pyrrolizin-7a(5H)-yl)-methoxy)quinazolin-4-yl)-1,4-oxazepan-6-ol] | < 500 nM | < 500 nM | – | – |
| N#Cc1c(N)sc2c(F)ccc(-c3c(Cl)cc4c(N5C[C@H]6CC[C@@H](C5)N6C5CCOCC5)nc(OC[C@@]56CCCN5C[C@H](F)C6)nc4c3F)c12 [Compound 679, 2-amino-4-(6-chloro-8-fluoro-2-(((2R,7aS)-2-fluorotetrahydro-1H-pyrrol-izin-7a(5H)-yl)methoxy)-4-((1R,5S)-8-(tetrahydro-2H-pyran-4-yl)-3,8-diaza-bicyclo[3.2.1]octan-3-yl)-quinazolin-7-yl)-7-fluoro-benzo[b]thiophene-3-carbonitrile] | – | – | < 500 nM | > 500 nM |
| CN1CCN(c2nc(OC[C@@H]3CCCN3C)nc3c(F)c(-c4cccc5sc(N)nc45)c(Cl)cc23)CC(F)(F)C1 [Compound 123, 4-(6-chloro-4-(6,6-difluoro-4-methyl-1,4-diazepan-1-yl)-8-fluoro-2-(((S)-1-methyl-pyrrolidin-2-yl)methoxy)-quinazolin-7-yl)benzo[d]-thiazol-2-amine] | > 500 nM | > 500 nM | – | – |
| Nc1nc2c(-c3ccc4c(N5C[C@H]6CCNCC[C@H]6C5)nc(OC[C@@]56CCCN5C[C@H](F)C6)nc4c3F)ccc(F)c2s1 [Compound 408, 7-fluoro-4-(8-fluoro-2-(((2R,7aS)-2-fluorotetra-hydro-1H-pyrrolizin-7a(5H)-yl)methoxy)-4-((3aR,8aS)-octahydropyrrolo[3,4-d]-azepin-2(1H)-yl)quinazolin-7-yl)benzo[d]thiazol-2-amine] | – | – | > 500 nM | < 500 nM |
| Nc1nc2c(-c3c(Cl)cc4c(N5CC6CNCC6C5)nc(OC[C@@]56CCCN5C[C@H](F)C6)nc4c3F)ccc(F)c2s1 (stereo partly drawn) [Compound 569, 4-(6-chloro-8-fluoro-2-(((2R,7aS)-2-fluorotetra-hydro-1H-pyrrolizin-7a(5H)-yl)methoxy)-4-(hexahydro-pyrrolo[3,4-c]pyrrol-2(1H)-yl)quinazolin-7-yl)-7-fluoro-benzo[d]thiazol-2-amine] | – | – | < 500 nM | > 500 nM |
| CN1CCC[C@H]1COc1nc(N2CCNCC(F)(F)C2)c2cc(Cl)c(-c3cccc4ccc(N)nc34)c(F)c2n1 [Compound 183, 8-(6-chloro-4-(6,6-difluoro-1,4-diazepan-1-yl)-8-fluoro-2-(((S)-1-methylpyrrolidin-2-yl)methoxy)quinazolin-7-yl)quinolin-2-amine] | > 500 nM | > 500 nM | – | – |
| CN1CCC[C@H]1COc1nc(N2CCNCC(F)(F)C2)c2cc(Cl)c(-c3cccc4oc(N)nc34)c(F)c2n1 [Compound 158, 4-(6-chloro-4-(6,6-difluoro-1,4-diazepan-1-yl)-8-fluoro-2-(((S)-1-methylpyrrolidin-2-yl)methoxy)quinazolin-7-yl)benzo[d]oxazol-2-amine] | < 500 nM | < 500 nM | – | – |
| Nc1nc2c(-c3c(Cl)cc4c(N5CC6CCC(C5)NC6)nc(OC[C@@]56CCCN5C[C@H](F)C6)nc4c3F)ccc(F)c2s1 (stereo partly drawn) [Compound 511, 4-(4-(3,6-diazabicyclo-[3.2.2]nonan-3-yl)-6-chloro-8-fluoro-2-(((2R,7aS)-2-fluorotetrahydro-1H-pyrrol-izin-7a(5H)-yl)methoxy)-quinazolin-7-yl)-7-fluoro-benzo[d]thiazol-2-amine] | – | – | < 500 nM | > 500 nM |
| N#Cc1c(N)sc2c(F)ccc(-c3c(Cl)cc4c(N5CCNCC(F)(F)C5)nc(OC[C@@]56CCCN5C[C@H](F)C6)nc4c3F)c12 [Compound 405, 2-amino-4-(6-chloro-4-(6,6-difluoro-1,4-diazepan-1-yl)-8-fluoro-2-(((2R,7aS)-2-fluorotetrahydro-1H-pyr-rolizin-7a(5H)-yl)methoxy)-quinazolin-7-yl)-7-fluoro-benzo[b]thiophene-3-carbonitrile] | – | – | > 500 nM | < 500 nM |
| CN(C)C1CN(c2nc(N3CCNCC(F)(F)C3)c3cc(Cl)c(-c4cccc5sc(N)nc45)c(F)c3n2)C1 [Compound 135, 4-(6-chloro-4-(6,6-difluoro-1,4-diazepan-1-yl)-2-(3-(dimethylamino)azetidin-1-yl)-8-fluoroquinazolin-7-yl)-benzo[d]thiazol-2-amine] | > 500 nM | > 500 nM | – | – |
| Cc1ccc(CN)cc1-c1c(Cl)cc2c(N3CC4CCC(C3)N4)nc(OCC34CCCN3CCC4)nc2c1F [Compound 469, (3-(4-(3,8-diazabicyclo-[3.2.1]octan-3-yl)-6-chloro-8-fluoro-2-((tetrahydro-1H-pyrrolizin-7a(5H)-yl)meth-oxy)quinazolin-7-yl)-4-methylphenyl)methanamine] | – | – | > 500 nM | < 500 nM |
| Cc1ncc(Oc2nc(N3CCCCCC3)c3cc(Cl)c(-c4cccc5sc(N)nc45)c(F)c3n2)cn1 [Compound 461, 4-(4-(azepan-1-yl)-6-chloro-8-fluoro-2-((2-methylpyrim-idin-5-yl)oxy)quinazolin-7-yl)benzo[d]thiazol-2-amine] | – | – | > 500 nM | < 500 nM |
| Nc1nc2c(-c3c(Cl)cc4c(N5CC6CCC(C5)N6)nc(OCC5(CN6CC[C@@H](F)C6)CC5)nc4c3F)ccc(F)c2s1 [Compound 586, 4-(4-(3,8-diazabicyclo-[3.2.1]octan-3-yl)-6-chloro-8-fluoro-2-((1-(((R)-3-fluoropyrrolidin-1-yl)meth-yl)cyclopropyl)methoxy)-quinazolin-7-yl)-7-fluoro-benzo[d]thiazol-2-amine] | – | – | < 500 nM | > 500 nM |
| Nc1nc2c(-c3c(Cl)cc4c(N5CC6CCC(C5)N6)nc(OCC56CCCN5CCC6)nc4c3F)cc(Cl)cc2s1 [Compound 615, 4-(4-(3,8-diazabicyclo-[3.2.1]octan-3-yl)-6-chloro-8-fluoro-2-((tetrahydro-1H-pyrrolizin-7a(5H)-yl)meth-oxy)quinazolin-7-yl)-6-chlorobenzo[d]thiazol-2-amine] | – | – | < 500 nM | > 500 nM |
| N#CC1CCCN(c2nc(OCC34CCCN3CCC4)nc3c(F)c(-c4ccc(F)c5sc(N)nc45)c(Cl)cc23)CC1 (stereo not shown) [Compound 172, 1-(7-(2-amino-7-fluoro-benzo[d]thiazol-4-yl)-6-chloro-8-fluoro-2-((tetra-hydro-1H-pyrrolizin-7a(5H)-yl)methoxy)-quinazolin-4-yl)azepane-4-carbonitrile] | < 500 nM | < 500 nM | – | – |
| Cc1ccc2[nH]nc(N)c2c1-c1c(Cl)cc2c(N3CCNCC(F)(F)C3)nc(OC[C@@H]3CCCN3C)nc2c1F [Compound 171, 4-(6-chloro-4-(6,6-difluoro-1,4-diazepan-1-yl)-8-fluoro-2-(((S)-1-methylpyrrolidin-2-yl)methoxy)quinazolin-7-yl)-5-methyl-1H-indazol-3-amine] | > 500 nM | > 500 nM | – | – |
| CN1CCC[C@H]1COc1nc(N2CCCCC(F)(F)C2)c2cc(Cl)c(-c3cccn4nc(N)nc34)c(F)c2n1 [Compound 182, (S)-8-(6-chloro-4-(3,3-difluoroazepan-1-yl)-8-fluoro-2-((1-methylpyrrol-idin-2-yl)methoxy)quin-azolin-7-yl)[1,2,4]triazolo-[1,5-a]pyridin-2-amine] | > 500 nM | > 500 nM | – | – |
| Fc1c(-c2cccc3cn[nH]c23)ccc2c(N3CC4CCC(C3)N4)nc(OC[C@@]34CCCN3C[C@H](F)C4)nc12 [Compound 657, 4-(3,8-diazabicyclo[3.2.1]-octan-3-yl)-8-fluoro-2-(((2R,7aS)-2-fluorotetra-hydro-1H-pyrrolizin-7a(5H)-yl)methoxy)-7-(1H-indazol-7-yl)quinazoline] | – | – | > 500 nM | > 500 nM |
| Nc1cc2cccc(-c3c(Cl)cc4c(N5CC6CCC(C5)N6)nc(OCC56CCCN5CCC6)nc4c3F)c2cn1 [Compound 618, 8-(4-(3,8-diazabicyclo-[3.2.1]octan-3-yl)-6-chloro-8-fluoro-2-((tetrahydro-1H-pyrrolizin-7a(5H)-yl)meth-oxy)quinazolin-7-yl)iso-quinolin-3-amine] | – | – | > 500 nM | > 500 nM |
| N#Cc1c(N)sc2c(F)ccc(-c3c(Cl)cc4c(N5CCCC6(CCNC6)C5)nc(OC[C@@]56CCCN5C[C@H](F)C6)nc4c3F)c12 (stereo partly drawn) [Compound 592, 2-amino-4-(6-chloro-8-fluoro-2-(((2R,7aS)-2-fluorotetrahydro-1H-pyrrol-izin-7a(5H)-yl)methoxy)-4-(2,7-diazaspiro[4.5]decan-7-yl)quinazolin-7-yl)-7-fluorobenzo[b]thiophene-3-carbonitrile] | – | – | < 500 nM | > 500 nM |
| Nc1nc2c(-c3cc4ncnc(N5CC6CCC(C5)N6)c4cc3Cl)ccc(F)c2s1 [Compound 635, 4-(4-(3,8-diazabicyclo-[3.2.1]octan-3-yl)-6-chloro-quinazolin-7-yl)-7-fluoro-benzo[d]thiazol-2-amine] | – | – | > 500 nM | > 500 nM |
| Cc1ccc(C#N)cc1-c1c(Cl)cc2c(N3CC4CCC(C3)N4)nc(OCC34CCCN3CCC4)nc2c1F [Compound 510, 3-(4-(3,8-diazabicyclo-[3.2.1]octan-3-yl)-6-chloro-8-fluoro-2-((tetrahydro-1H-pyrrolizin-7a(5H)-yl)meth-oxy)quinazolin-7-yl)-4-methylbenzonitrile] | – | – | > 500 nM | > 500 nM |
| CN1CCC[C@H]1COc1nc(N2CCNCC(O)C2)c2cc(Cl)c(-c3cccc4sc(N)nc34)c(F)c2n1 (stereo partly drawn) [Compound 103, 1-(7-(2-aminobenzo[d]-thiazol-4-yl)-6-chloro-8-fluoro-2-(((S)-1-methyl-pyrrolidin-2-yl)methoxy)-quinazolin-4-yl)-1,4-diazepan-6-ol] | < 500 nM | < 500 nM | – | – |
